Data taken from patent US10457663B2, “Pyrazol-pyridine derivatives” (Hoffmann-La Roche Inc., priority 2016, dated 2019).

Legend:
human EAAT3 = molecular target: T1, human EAAT3 (Homo sapiens, UniProt P43005); assay: FLIPR Membrane Potential (FMP) assay; type: cell-based; details: HEK-293 cells stably expressing human EAAT3; L-glutamate as agonist at EC80; antagonist applied 15 min before; Kb by Cheng-Prusoff from IC50
T1 construct: expressed in transfected cells; host or cells: HEK-293
T1 sequence (P43005 1-524): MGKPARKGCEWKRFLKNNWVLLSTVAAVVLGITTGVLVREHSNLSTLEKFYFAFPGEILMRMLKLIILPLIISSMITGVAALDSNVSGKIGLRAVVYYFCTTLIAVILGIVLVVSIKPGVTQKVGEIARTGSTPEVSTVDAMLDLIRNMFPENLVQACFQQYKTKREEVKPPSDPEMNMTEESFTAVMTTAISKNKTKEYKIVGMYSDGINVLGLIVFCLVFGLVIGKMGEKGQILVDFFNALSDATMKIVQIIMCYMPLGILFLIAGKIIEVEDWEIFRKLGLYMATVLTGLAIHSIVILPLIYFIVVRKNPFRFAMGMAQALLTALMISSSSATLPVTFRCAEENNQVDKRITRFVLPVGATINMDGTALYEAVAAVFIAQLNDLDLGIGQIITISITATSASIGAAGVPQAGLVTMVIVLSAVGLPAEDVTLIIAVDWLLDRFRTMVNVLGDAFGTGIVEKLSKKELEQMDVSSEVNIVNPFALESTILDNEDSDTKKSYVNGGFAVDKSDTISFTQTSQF
Protocol: The FLIPR Membrane Potential (FMP) assay
HEK-293 cells stably expressing human EAAT3 were seeded at 55 000 cells/well in growth medium (DMEM glutamate free (Invitrogen 11960-044), 1% Pen Strep (10 ml/l GIBCO BRL N^o 15140-023), 10% FCS non dialysed heat inactivated, 5 mg/l puromycin) in poly-D-lysine treated 96-well black microtiter plates with clear-bottom. After 24 h, the growth medium was removed and 100 μl/well of Krebs buffer (140 mM NaCl, 4.7 mM KCl, 2.5 mM CaCl2), 1.2 mM MgCl2, 11 mM HEPES, 10 mM D-glucose, pH=7.4) added. The cells were then loaded by adding 100 μl/well FMP assay dye (FLIPR Membrane Potential assay reagent, Molecular Devices). The 96-well plates were then incubated at 37° C. for 1 h. The depolarization of the cells will cause more dye to enter in the cells, where it will bind to intracellular proteins and lipids and cause an increase in the fluorescence signal. Antagonist potency at human EAAT3 was determined by using L-glutamate as agonist at a concentration which gives 80% of the maximum response. The antagonists were applied 15 min before the application of the agonist L-glutamate. The assays were performed at room temperature and measurements done by using a Fluorometric Imaging Plate Reader (FLIPR, Molecular Devices) and filter #2. Responses were measured as peak increase in fluorescence minus basal (i.e. fluorescence without addition of L-glutamate). Kb was determined using the Cheng-Prusoff equation Kb=IC50/[1+(A/EC50)], where IC50 is the concentration of the antagonist producing 50% inhibition, A is the concentration of the agonist against which the IC50 is being determined (at EC80) and EC50 is the concentration of the agonist producing 50% […].

| SMILES | Kb (human EAAT3) | melting point |
| --- | --- | --- |
| CC(C)n1nccc1-c1cc(C(=O)NC(C)(C)C2CC2)cc(-c2ccc(Cl)cc2)n1 [Example 49, 2-(4-Chlorophenyl)-N-(2-cyclopropyl-propan-2-yl)-6-(2-propan-2-yl-pyrazol-3-yl)-pyridine-4-carboxamide] | 3.1 µM | 164 °C |
| CC(C)n1nccc1-c1cc(C(=O)NC(C)(C)C(F)(F)F)cc(-c2ccc(Cl)cc2)n1 [Example 50, 2-(4-Chlorophenyl)-6-(2-propan-2-yl-pyrazol-3-yl)-N-(1,1,1-trifluoro-2-methylpropan-2-yl)-pyridine-4-carboxamide] | 1.43 µM | 177 °C |
| CC(C)n1nccc1-c1cc(C(=O)NC(C)(C)CO)cc(-c2ccc(Cl)cc2)n1 [Example 51, 2-(4-Chlorophenyl)-N-(1-hydroxy-2-methylpropan-2-yl)-6-(2-propan-2-yl-pyrazol-3-yl)-pyridine-4-carboxamide] | 0.34 µM | 165 °C |
| CC(C)n1nccc1-c1cc(C(=O)NC(C)(C)C#N)cc(-c2ccc(Cl)cc2)n1 [Example 52, 2-(4-Chlorophenyl)-N-(2-cyanopropan-2-yl)-6-(2-propan-2-yl-pyrazol-3-yl)-pyridine-4-carboxamide] | 0.44 µM | 206 °C |
| CC(C)(C)n1nccc1-c1cc(C(=O)NC(C)(C)C(F)(F)F)cc(-c2ccc(Cl)cc2)n1 [Example 54, 2-(2-tert-Butyl-pyrazol-3-yl)-6-(4-chlorophenyl)-N-(1,1,1-trifluoro-2-methyl-propan-2-yl)-pyridine-4-carboxamide] | 0.44 µM | 206 °C |
| CC(C)(CO)NC(=O)c1cc(-c2ccc(Cl)cc2)nc(-c2ccnn2C(C)(C)C)c1 [Example 55, 2-(2-tert-Butyl-pyrazol-3-yl)-6-(4-chlorophenyl)-N-(1-hydroxy-2-methyl-propan-2-yl)-pyridine-4-carboxamide] | 0.073 µM | 177 °C |
| CC(C)(C#N)NC(=O)c1cc(-c2ccc(Cl)cc2)nc(-c2ccnn2C(C)(C)C)c1 [Example 56, 2-(2-tert-Butyl-pyrazol-3-yl)-6-(4-chlorophenyl)-N-(2-cyano-propan-2-yl)-pyridine-4-carboxamide] | 0.21 µM | 230 °C |

Further lines, results first:

| Kb (human EAAT3) | melting point | SMILES |
| --- | --- | --- |
| 0.51 µM | 179 °C | CCn1nccc1-c1cc(C(=O)NC(C)(C)C)cc(-c2ccc(Cl)cc2)n1 [Example 39, N-tert-Butyl-2-(4-chlorophenyl)-6-(2-ethyl-pyrazol-3-yl)-pyridine-4-carboxamide] |
| 0.49 µM | 218 °C | CC(C)(C)NC(=O)c1cc(-c2ccc(Cl)cc2)nc(-c2ccnn2CC2CC2)c1 [Example 40, N-tert-Butyl-2-(4-chlorophenyl)-6-[2-(cyclopropyl-methyl)-pyrazol-3-yl]-pyridine-4-carboxamide] |
| 0.75 µM | 186 °C | CCn1nccc1-c1cc(C(=O)NC(C)(C)C)cc(-c2ccc(C(F)(F)F)cc2)n1 [Example 41, N-tert-Butyl-2-(2-ethyl-pyrazol-3-yl)-6-[4-(trifluoromethyl)-phenyl]-pyridine-4-carboxamide] |
| 0.38 µM | 203 °C | CC(C)(C)NC(=O)c1cc(-c2ccc(C(F)(F)F)cc2)nc(-c2ccnn2CC2CC2)c1 [Example 42, N-tert-Butyl-2-[2-(cyclopropylmethyl)-pyrazol-3-yl]-6-[4-(trifluoromethyl)-phenyl]-pyridine-4-carboxamide] |
| 0.56 µM | 186 °C | CC(C)n1nccc1-c1cc(C(=O)NC(C)(C)C(F)(F)F)cc(-c2ccc(F)cc2)n1 [Example 44, 2-(4-Fluorophenyl)-6-(2-propan-2-yl-pyrazol-3-yl)-N-(1,1,1-trifluoro-2-methyl-propan-2-yl)-pyridine-4-carboxamide] |
| 0.55 µM | 173 °C | CC(C)n1nccc1-c1cc(C(=O)NC(C)(C)C2CC2)cc(-c2ccc(F)cc2)n1 [Example 46, N-(2-Cyclopropyl-propan-2-yl)-2-(4-fluorophenyl)-6-(2-propan-2-yl-pyrazol-3-yl)-pyridine-4-carboxamide] |
| 0.31 µM | 180 °C | CC(C)n1nccc1-c1cc(C(=O)NC(C)(C)CO)cc(-c2ccc(F)cc2)n1 [Example 47, 2-(4-Fluorophenyl)-N-(1-hydroxy-2-methyl-propan-2-yl)-6-(2-propan-2-yl-pyrazol-3-yl)-pyridine-4-carboxamide] |
| 0.24 µM | 175 °C | CC(C)(C)NC(=O)c1cc(-c2ccc(F)cc2)nc(-c2ccnn2C2CC2)c1 [Example 48, N-tert-Butyl-2-(2-cyclopropyl-pyrazol-3-yl)-6-(4-fluorophenyl)-pyridine-4-carboxamide] |
| 0.86 µM | 161 °C | CC(C)(NC(=O)c1cc(-c2ccc(Cl)cc2)nc(-c2ccnn2C(C)(C)C)c1)C1CC1 [Example 53, 2-(2-tert-Butyl-pyrazol-3-yl)-6-(4-chlorophenyl)-N-(2-cyclopropyl-propan-2-yl)-pyridine-4-carboxamide] |
